# Assay results published in PubChem BioAssay AID687005 (Broad Institute, 2013).
# Records with an inconclusive call do not appear. The source made the active and inactive calls.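 How the source made its calls: active means Compounds that reduce signal, with fitted half-maximal dose at or under twice the top valid tested dose; inconclusive means Poor fit, or flat curve losing 30 to 70% of signal; inactive means Potency past limit, flat within 30%, or opposite direction.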
# Experiment: HEK293T cell cytotoxicity, dose response, cytotoxicity control, ATP luminescence, cherry-pick samples (AID 687005)
# Conditions: HEK293T viability, ATP luminescence (CellTiter-Glo), 48 h; at 18 µM (top of the series)
row,Structure (SMILES),"activity change, negative = cytotoxicity"
1,CN1CCN(C(=O)CN(c2ccc(I)cc2)S(=O)(=O)c2ccccc2)CC1,45.2% (inactive)

# Same assay, conditions: HEK293T viability, ATP luminescence (CellTiter-Glo), 48 h; at 21 µM (top of the series)
row,Structure (SMILES),"activity change, negative = cytotoxicity"
1,Cc1ccc(S(=O)(=O)N[C@@H]2CCCN(Cc3cccc(OCCO)c3)C2)cc1,0.167% (inactive)

# Same assay, conditions: HEK293T viability, ATP luminescence (CellTiter-Glo), 48 h; at 23.5 µM (top of the series)
row,Structure (SMILES),"activity change, negative = cytotoxicity"
1,CO[C@H]1CN(C)C(=O)c2cc(NC(=O)C3CCOCC3)ccc2OC[C@@H](C)NC[C@H]1C,41% (inactive)
2,N#Cc1ccc(-c2ccc3c(c2)[C@@H]2[C@@H](CCN2C(=O)Cc2ccccc2)[C@@H](CO)N3)cc1,-19.6% (inactive)
3,CN1C(=O)c2cc(NS(C)(=O)=O)ccc2OC[C@@H]2O[C@@H](CC(=O)O)CC[C@@H]21,-2.71% (inactive)
4,Cc1ccc(S(=O)(=O)Nc2ccc3c(c2)C(=O)N([C@@H](C)CO)C[C@H](C)[C@H](CN(C)C(=O)Nc2ccc(C(F)(F)F)cc2)O3)cc1,-1.43% (inactive)
5,COc1ccc(CN(C)C[C@@H]2Oc3ccc(NC(=O)C4CC4)cc3C(=O)N([C@@H](C)CO)C[C@H]2C)cc1,8.64% (inactive)
6,COc1cccc(S(=O)(=O)Nc2ccc3c(c2)[C@H]2C[C@H](CC(=O)NCc4cccc(F)c4)O[C@@H](CO)[C@H]2O3)c1,-22.3% (inactive)

# Same assay, conditions: HEK293T viability, ATP luminescence (CellTiter-Glo), 48 h; at 26 µM (top of the series)
row,Structure (SMILES),"activity change, negative = cytotoxicity"
1,O=C(NC(=S)Nc1ccccc1N1CCCC1)c1ccc([N+](=O)[O-])cc1,-8.4% (inactive)
2,CCC(=O)N(C)C[C@@H]1Oc2cc(C#CC(C)(C)O)ccc2S(=O)(=O)N([C@@H](C)CO)C[C@H]1C,-26.1% (inactive)
3,CNC(=O)CN(c1ccc(OC)cc1)S(=O)(=O)c1ccc(F)cc1,31.6% (inactive)
4,C[C@H]1CN([C@@H](C)CO)C(=O)CCCn2nncc2CO[C@H]1CN(C)C(=O)Oc1cccc2ccccc12,-6.41% (inactive)
5,N#Cc1ccc(C23CC4(C2)[C@H](CN(Cc2ccc(-c5ccccc5)cc2)[C@@H]4c2ccccc2)C3c2ccc(C(F)(F)F)cc2)cc1 (stereo partly drawn),-11.2% (inactive)
6,O=C(NCC[C@H]1CC[C@H](NS(=O)(=O)c2ccc(F)cc2)[C@@H](CO)O1)c1ccc2c(c1)OCO2,-2.6% (inactive)
7,Cc1cc(C)c(NC(=O)C2CCCCN2C)c(C)c1 (stereo not drawn),10.1% (inactive)
8,CCCNC(=O)N1C[C@@H]2[C@H](c3ccccc31)[C@H](CO)N2Cc1ccc(OC)cc1,2.66% (inactive)
9,NC(=O)NCC#Cc1ccc2c(c1)[C@]1(C(=O)N2)[C@H](C(N)=O)[C@H]2C(=O)O[C@H](c3ccccc3)[C@H](c3ccccc3)N2[C@@H]1c1ccccc1OCCO,-5.26% (inactive)
10,CCCNC(=O)N(C)C[C@H]1Oc2ncc(C#CC3CCCCC3)cc2C(=O)N([C@@H](C)CO)C[C@@H]1C,9.03% (inactive)
11,CNC[C@H]1Oc2cc(Br)ccc2S(=O)(=O)N([C@H](C)CO)C[C@H]1C,37.7% (inactive)
12,C[C@H](CO)N1C[C@H](C)[C@@H](CN(C)S(=O)(=O)c2cn(C)cn2)Oc2c(NC(=O)Nc3ccccc3)cccc2C1=O,1.19% (inactive)
13,CO[C@@H]1CN(C)C(=O)c2cc(NS(=O)(=O)c3cccc(C)c3)ccc2OC[C@@H](C)NC[C@H]1C,4.92% (inactive)
14,CCCNC(=O)N1C[C@H](O)COC[C@H]2O[C@H](CC(=O)N3CCN(C)CC3)CC[C@@H]21,-14.1% (inactive)
15,CNC(=O)CSc1ncnc2c1cnn2-c1ccccc1,10.1% (inactive)
16,C[C@H]1CN([C@@H](C)CO)C(=O)c2cc(Br)cnc2O[C@@H]1CN(C)Cc1ccccn1,22.1% (inactive)
17,CCC(=O)N1[C@H](CN(C)C(C)=O)[C@@H](c2ccc(C3=CCCCC3)cc2)[C@@H]1CO,-18.9% (inactive)
18,CCCNC(=O)C[C@@H]1CC[C@@H]2[C@H](COc3ccc(NC(=O)CCC)cc3C(=O)N2C)O1,52.7% (inactive)
19,CCC(=O)N1[C@H](CO)[C@H](c2ccc(-c3ccc(F)cc3)cc2)[C@@H]1CNC(C)=O,-42.1% (inactive)

row,Structure (SMILES),"activity change, negative = cytotoxicity"
1,COc1ccc(S(=O)(=O)Nc2ccc3c(c2)C(=O)N([C@@H](C)CO)C[C@H](C)[C@@H](CN(C)C)OCCCC[C@H](C)O3)cc1,-9.62% (inactive)
2,Cc1ccc(C)c(NC(=O)C2CCCN2C(=O)NC2CCCCC2)c1 (stereo not drawn),25.9% (inactive)
3,C[C@H](CO)N1C[C@H](C)[C@H](CN(C)C(=O)Nc2cccc3ccccc23)Oc2ccc(NC(=O)Nc3ccccc3)cc2C1=O,2.5% (inactive)
4,C[C@@H]1CN([C@@H](C)CO)C(=O)c2cccc(NS(=O)(=O)c3ccc(F)cc3)c2O[C@H]1CN(C)S(=O)(=O)c1ccc(Cl)cc1,-22.8% (inactive)
5,CC(C)CC#Cc1cnc2c(c1)C(=O)N([C@H](C)CO)C[C@H](C)[C@H](CN(C)C(=O)c1cccnc1)O2,-8.15% (inactive)
6,CC(C)NC(=O)Nc1ccc2c(c1)CC(=O)N([C@H](C)CO)C[C@H](C)[C@@H](CN(C)C(=O)Nc1ccc3c(c1)OCO3)O2,31.9% (inactive)
7,C[C@@H]1CCCCO[C@@H](CN(C)C(=O)CCCN(C)C)[C@@H](C)CN([C@H](C)CO)C(=O)c2cc(NC(=O)Cc3ccccc3)ccc2O1,13.4% (inactive)
8,Fc1ccccc1NC(=S)NCCc1cccc(Cl)c1,1.09% (inactive)
9,CNC[C@H]1Oc2c(NS(=O)(=O)c3cccs3)cccc2C(=O)N([C@H](C)CO)C[C@@H]1C,-26.9% (inactive)
10,Cc1cccc(C)c1NC(=O)C1(C)CCC(=O)N1CCCn1ccnc1 (stereo not drawn),-14.5% (inactive)
11,C[C@H]1CN([C@@H](C)CO)C(=O)Cc2cc(NC(=O)Nc3ccccc3)ccc2O[C@H]1CN(C)C(=O)Nc1ccc2c(c1)OCO2,-2.2% (inactive)
12,COc1cccc(S(=O)(=O)N2C[C@@H](O)COC[C@H]3O[C@H](CC(=O)N4CCN(C)CC4)CC[C@@H]32)c1,-1.64% (inactive)
13,Cc1ccc(S(=O)(=O)N[C@H]2CC[C@H](CC(=O)NCc3ccccc3F)O[C@H]2CO)cc1,8.09% (inactive)
14,C[C@H]1CN([C@@H](C)CO)C(=O)Cc2cc(NC(=O)Nc3cccc4ccccc34)ccc2O[C@H]1CN(C)S(=O)(=O)c1cccs1,-25.9% (inactive)
15,COc1cccc(-c2cn(CC[C@@H]3CC[C@H](NC(C)=O)[C@@H](CO)O3)nn2)c1,8.26% (inactive)
16,CCCNC(=O)N1[C@@H](CO)[C@@H](c2ccc(-c3ccccc3)cc2)[C@@H]1CNC(C)=O,-1.66% (inactive)
17,CCNC(=O)C[C@H]1CC[C@@H](NC(=O)NC2CCCCC2)[C@H](CO)O1,-2.42% (inactive)
18,O=C(C[C@@H]1CC[C@H](NC(=O)Cc2ccccn2)[C@H](CO)O1)NCCc1ccccc1,-2.62% (inactive)
19,CC(=O)N[C@H]1CC[C@@H](CCNC(=O)C2CCC2)O[C@H]1CO,1.44% (inactive)

# Same assay, conditions: HEK293T viability, ATP luminescence (CellTiter-Glo), 48 h; at 35 µM (top of the series)
row,Structure (SMILES),"activity change, negative = cytotoxicity"
1,Cc1cccc(N2CCN(C(=O)C3CCC(=O)N3C(C)C)CC2C)c1 (stereo not drawn),21% (inactive)
2,Cc1ccc(NC(=O)C2(C)CCN2C(=O)CCC2CCCC2)cc1C (stereo not drawn),-23.2% (inactive)
